Tests used:
[1] = test system: MCF-7 breast cancer cell line; assay: MTT antiproliferative assay, MCF-7; format: cell-based; settings: 10 µM, 24 h
Experimental: (§1) At least, three independent experiments were performed.

[2] = test system: DLD-1 colorectal cancer cell line; assay: MTT antiproliferative assay, DLD-1; settings: for GI% DLD1: 10 µM, 24 h, MTT; for IC50: Homo sapiens, DLD-1, 24 h, read-out: IC50 DLD1 (half maximal growth inhibitory concentration)
Experimental: (§2) After the incubation of the tested compounds for 24 h, the percent growth inhibition (GI%) was calculated.
(§3) Cells were seeded at 1 × 10^4 cells/well and cultured overnight in a 96-well plate. […] Then, 150 µl DMSO was used to solubilise MTT formazan crystals. Finally, the plates were shaken, and the optical density was determined at 570 nm using ELISA plate reader. At least, three independent experiments were performed. Percentage of growth inhibition was determined as (1-[OD of treated cells/OD of control cells]). […] The IC50 values were calculated using Prism v0.8 software (GraphPad Software Inc., La Jolla, CA).

IGF-1R = molecular target: T1, IGF-1R (Homo sapiens, UniProt P08069); assay: Z`-LYTE kinase profiling, IGF-1R; format: biochemical
T1 construct: purchased Invitrogen/Life Technologies
T1 sequence (P08069 31-1367): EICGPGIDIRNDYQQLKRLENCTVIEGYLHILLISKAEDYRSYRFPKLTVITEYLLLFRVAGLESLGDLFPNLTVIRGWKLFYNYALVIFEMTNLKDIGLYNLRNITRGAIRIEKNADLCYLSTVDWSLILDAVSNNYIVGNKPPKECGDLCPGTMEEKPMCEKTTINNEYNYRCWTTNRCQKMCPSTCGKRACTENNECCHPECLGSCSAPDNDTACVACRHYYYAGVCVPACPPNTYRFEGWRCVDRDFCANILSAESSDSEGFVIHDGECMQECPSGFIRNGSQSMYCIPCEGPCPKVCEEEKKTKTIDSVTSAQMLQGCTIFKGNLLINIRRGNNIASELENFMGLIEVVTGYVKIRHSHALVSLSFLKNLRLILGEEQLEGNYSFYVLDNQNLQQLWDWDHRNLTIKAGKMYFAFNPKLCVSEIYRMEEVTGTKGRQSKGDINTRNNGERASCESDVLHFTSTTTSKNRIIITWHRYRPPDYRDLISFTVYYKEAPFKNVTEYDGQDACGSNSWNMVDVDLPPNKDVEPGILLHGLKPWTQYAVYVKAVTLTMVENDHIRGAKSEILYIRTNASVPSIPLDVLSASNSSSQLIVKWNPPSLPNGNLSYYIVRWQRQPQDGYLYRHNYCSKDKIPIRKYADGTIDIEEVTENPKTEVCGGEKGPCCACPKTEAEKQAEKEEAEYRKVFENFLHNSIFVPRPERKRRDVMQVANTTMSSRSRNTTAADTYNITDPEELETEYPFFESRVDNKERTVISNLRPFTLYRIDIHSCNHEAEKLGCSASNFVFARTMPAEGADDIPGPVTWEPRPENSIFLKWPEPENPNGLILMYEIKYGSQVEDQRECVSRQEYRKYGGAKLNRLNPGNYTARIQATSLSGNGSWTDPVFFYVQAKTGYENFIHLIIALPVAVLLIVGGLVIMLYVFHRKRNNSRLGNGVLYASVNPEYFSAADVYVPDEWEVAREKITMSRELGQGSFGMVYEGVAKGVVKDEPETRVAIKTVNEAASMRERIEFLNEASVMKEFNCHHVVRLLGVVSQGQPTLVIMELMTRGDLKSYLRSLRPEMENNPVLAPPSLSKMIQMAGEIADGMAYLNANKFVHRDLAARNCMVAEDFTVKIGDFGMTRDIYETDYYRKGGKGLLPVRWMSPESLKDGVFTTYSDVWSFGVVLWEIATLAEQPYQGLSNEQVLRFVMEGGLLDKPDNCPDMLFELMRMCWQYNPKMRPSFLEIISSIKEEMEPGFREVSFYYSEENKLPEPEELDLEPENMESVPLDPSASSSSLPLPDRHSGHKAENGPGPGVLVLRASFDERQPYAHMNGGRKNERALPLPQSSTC

HER-2 = molecular target: T2, HER-2 (Homo sapiens, UniProt P04626); assay: Z`-LYTE kinase profiling, HER-2; format: biochemical
T2 construct: purchased Invitrogen/Life Technologies
T2 sequence (P04626 23-1255): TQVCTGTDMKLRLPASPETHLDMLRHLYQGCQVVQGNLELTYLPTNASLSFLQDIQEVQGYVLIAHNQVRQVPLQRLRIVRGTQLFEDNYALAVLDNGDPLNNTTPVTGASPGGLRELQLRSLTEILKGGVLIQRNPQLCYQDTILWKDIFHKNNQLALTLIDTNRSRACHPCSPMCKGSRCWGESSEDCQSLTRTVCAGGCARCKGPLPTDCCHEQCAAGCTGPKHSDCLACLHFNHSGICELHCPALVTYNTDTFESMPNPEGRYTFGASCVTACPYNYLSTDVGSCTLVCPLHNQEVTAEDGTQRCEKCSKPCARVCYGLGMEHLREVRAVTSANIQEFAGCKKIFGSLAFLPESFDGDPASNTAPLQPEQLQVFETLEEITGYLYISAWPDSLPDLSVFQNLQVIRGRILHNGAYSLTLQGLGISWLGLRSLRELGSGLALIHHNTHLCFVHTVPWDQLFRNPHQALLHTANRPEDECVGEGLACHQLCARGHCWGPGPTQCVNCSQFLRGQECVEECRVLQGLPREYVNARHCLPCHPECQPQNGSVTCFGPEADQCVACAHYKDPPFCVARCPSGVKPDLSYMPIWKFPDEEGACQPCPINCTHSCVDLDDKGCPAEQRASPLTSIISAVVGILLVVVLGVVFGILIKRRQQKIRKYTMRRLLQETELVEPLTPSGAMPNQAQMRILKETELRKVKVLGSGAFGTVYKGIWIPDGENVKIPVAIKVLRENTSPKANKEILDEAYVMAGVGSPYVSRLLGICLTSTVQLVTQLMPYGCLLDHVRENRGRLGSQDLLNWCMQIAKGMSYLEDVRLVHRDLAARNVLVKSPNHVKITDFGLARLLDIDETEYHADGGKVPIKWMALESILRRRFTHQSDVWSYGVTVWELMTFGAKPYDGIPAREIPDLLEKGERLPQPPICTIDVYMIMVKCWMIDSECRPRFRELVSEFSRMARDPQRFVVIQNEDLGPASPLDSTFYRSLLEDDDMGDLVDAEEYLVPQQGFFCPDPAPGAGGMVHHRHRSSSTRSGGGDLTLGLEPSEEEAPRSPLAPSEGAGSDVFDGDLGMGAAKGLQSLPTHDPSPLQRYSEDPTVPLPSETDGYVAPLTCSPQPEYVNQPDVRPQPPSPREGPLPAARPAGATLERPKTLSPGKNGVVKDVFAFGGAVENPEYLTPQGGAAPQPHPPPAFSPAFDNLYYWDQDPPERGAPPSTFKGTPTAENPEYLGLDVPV

FRK = molecular target: T3, FRK (Homo sapiens, UniProt P42685); assay: Z`-LYTE kinase profiling, FRK; format: biochemical
T3 construct: purchased Invitrogen/Life Technologies
T3 sequence (P42685 whole entry): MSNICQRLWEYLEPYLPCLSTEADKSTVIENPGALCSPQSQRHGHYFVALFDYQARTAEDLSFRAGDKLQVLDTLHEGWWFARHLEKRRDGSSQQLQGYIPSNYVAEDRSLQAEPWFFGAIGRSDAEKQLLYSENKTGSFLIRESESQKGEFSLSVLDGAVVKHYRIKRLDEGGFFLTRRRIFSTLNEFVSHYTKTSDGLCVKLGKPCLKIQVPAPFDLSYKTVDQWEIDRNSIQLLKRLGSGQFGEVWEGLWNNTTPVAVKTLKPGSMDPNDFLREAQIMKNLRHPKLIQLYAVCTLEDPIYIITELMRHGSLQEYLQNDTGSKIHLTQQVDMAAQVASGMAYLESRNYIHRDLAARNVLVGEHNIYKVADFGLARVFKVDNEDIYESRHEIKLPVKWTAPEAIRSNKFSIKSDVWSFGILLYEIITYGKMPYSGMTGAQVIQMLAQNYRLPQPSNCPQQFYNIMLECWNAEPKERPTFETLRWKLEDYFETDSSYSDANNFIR

recombinant human TOP1 = molecular target: T4, recombinant human TOP1 (Homo sapiens, UniProt P11387); assay: Topoisomerase I-mediated DNA cleavage assay; settings: tested at 0.1, 1, 10, 100 µM
T4 sequence (P11387 1-765): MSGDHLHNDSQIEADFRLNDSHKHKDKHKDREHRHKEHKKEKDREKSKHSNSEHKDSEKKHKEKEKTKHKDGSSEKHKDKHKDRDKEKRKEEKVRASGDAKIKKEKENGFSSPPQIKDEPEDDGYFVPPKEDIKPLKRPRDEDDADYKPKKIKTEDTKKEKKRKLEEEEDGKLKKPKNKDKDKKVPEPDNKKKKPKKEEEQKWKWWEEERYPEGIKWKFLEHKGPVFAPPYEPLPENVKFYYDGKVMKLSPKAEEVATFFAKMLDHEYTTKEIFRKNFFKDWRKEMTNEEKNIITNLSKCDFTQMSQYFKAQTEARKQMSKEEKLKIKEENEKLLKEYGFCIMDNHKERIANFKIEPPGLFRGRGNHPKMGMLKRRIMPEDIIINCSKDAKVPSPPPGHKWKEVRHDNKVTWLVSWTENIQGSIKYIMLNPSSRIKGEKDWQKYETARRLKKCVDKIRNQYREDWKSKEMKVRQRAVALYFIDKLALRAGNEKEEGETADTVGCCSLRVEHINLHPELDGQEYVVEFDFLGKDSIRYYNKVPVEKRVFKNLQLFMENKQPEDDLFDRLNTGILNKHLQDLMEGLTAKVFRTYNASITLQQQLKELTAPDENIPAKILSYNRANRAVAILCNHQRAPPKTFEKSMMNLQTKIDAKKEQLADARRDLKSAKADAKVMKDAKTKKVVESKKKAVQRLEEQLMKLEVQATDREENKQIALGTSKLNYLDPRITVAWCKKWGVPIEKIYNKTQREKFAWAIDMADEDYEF
Experimental: Radiolabeled DNA was incubated with recombinant human TOP1 in 20 µL reaction buffer (10 mmol/L Tris-HCl, pH 7.5, 50 mmol/L KCl, 5 mmol/L MgCl2, 0.1 mmol/L EDTA, and 15 µg/mL BSA) at 30 °C for 20 min in the presence of the indicated drug concentrations. Reactions were terminated by adding SDS (0.5% final concentration) followed by the addition of two volumes of loading dye (80% formamide, 10 mmol/L sodium hydroxide, 1 mmol/L sodium EDTA, 0.1% xylene cyanol, and 0.1% bromophenol blue). Aliquots of reaction mixtures were subjected to 20% denaturing PAGE. Gels were dried and visualised by using PhosphorImager and Image Quant software (Molecular Dynamics).

FAK = FAK (Homo sapiens, UniProt Q05397); assay: Z`-LYTE kinase inhibitory assay, FAK
BTK = molecular target: T5, BTK (Homo sapiens, UniProt Q06187); assay: Z`-LYTE kinase profiling, BTK; format: biochemical
T5 construct: purchased Invitrogen/Life Technologies

VEGFR-1 = molecular target: T6, VEGFR-1 (Homo sapiens, UniProt P17948); assay: Z`-LYTE kinase profiling, VEGFR-1; format: biochemical
T6 construct: purchased Invitrogen/Life Technologies

[3] = test system: MDMBA-231 breast cancer cell line; assay: MTT antiproliferative assay, MDMBA-231; format: cell-based; settings: 10 µM, 24 h
Experimental: as §1

VEGFR-2 = molecular target: T7, VEGFR-2 (Homo sapiens, UniProt P35968); assay: Z`-LYTE kinase profiling, VEGFR-2; format: biochemical
T7 construct: purchased Invitrogen/Life Technologies
T7 sequence (P35968 20-1356): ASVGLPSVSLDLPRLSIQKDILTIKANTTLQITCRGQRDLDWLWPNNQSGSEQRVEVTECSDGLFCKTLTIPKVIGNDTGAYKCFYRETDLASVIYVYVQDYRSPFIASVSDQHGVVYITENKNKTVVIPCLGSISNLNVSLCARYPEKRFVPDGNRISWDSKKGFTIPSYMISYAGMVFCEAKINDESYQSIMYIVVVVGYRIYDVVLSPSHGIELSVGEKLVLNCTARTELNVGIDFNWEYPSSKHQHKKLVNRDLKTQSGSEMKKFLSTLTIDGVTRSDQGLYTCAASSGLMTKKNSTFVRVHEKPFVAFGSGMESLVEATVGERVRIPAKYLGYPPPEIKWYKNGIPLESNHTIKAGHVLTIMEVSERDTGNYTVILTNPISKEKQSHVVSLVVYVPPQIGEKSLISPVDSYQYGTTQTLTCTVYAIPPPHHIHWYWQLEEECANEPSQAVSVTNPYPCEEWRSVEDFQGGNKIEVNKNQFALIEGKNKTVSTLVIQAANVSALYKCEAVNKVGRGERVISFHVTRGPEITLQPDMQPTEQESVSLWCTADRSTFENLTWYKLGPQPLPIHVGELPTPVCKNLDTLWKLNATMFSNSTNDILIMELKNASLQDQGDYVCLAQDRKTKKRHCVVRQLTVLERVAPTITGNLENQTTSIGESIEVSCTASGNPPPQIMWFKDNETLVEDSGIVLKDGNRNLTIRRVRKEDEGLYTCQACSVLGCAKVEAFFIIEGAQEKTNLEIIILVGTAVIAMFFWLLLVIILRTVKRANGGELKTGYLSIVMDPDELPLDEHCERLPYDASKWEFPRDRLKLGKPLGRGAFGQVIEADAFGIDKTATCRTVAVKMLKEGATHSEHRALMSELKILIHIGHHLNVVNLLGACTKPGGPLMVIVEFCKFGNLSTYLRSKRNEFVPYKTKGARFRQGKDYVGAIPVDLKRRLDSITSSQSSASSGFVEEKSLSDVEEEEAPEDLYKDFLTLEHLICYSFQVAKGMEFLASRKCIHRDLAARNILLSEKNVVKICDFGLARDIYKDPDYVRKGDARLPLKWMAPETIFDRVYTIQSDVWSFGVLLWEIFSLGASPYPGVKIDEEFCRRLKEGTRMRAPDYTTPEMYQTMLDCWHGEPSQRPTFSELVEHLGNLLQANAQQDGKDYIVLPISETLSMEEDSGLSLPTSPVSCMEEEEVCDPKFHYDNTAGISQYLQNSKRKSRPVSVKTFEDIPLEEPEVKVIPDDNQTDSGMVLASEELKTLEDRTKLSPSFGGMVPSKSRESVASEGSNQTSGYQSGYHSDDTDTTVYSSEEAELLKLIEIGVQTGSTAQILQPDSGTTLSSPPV

EGFR = EGFR (Homo sapiens, UniProt P00533); assay: Z`-LYTE kinase inhibitory assay, EGFR
[4] = test system: HeLa cervical cancer cell line; assay: MTT antiproliferative assay, HeLa; format: cell-based; settings: 10 µM, 24 h
Experimental: as §1

c-Src = molecular target: T8, c-Src (Homo sapiens, UniProt P12931); assay: Z`-LYTE kinase profiling, c-Src; format: biochemical
T8 construct: purchased Invitrogen/Life Technologies
T8 sequence (P12931 whole entry): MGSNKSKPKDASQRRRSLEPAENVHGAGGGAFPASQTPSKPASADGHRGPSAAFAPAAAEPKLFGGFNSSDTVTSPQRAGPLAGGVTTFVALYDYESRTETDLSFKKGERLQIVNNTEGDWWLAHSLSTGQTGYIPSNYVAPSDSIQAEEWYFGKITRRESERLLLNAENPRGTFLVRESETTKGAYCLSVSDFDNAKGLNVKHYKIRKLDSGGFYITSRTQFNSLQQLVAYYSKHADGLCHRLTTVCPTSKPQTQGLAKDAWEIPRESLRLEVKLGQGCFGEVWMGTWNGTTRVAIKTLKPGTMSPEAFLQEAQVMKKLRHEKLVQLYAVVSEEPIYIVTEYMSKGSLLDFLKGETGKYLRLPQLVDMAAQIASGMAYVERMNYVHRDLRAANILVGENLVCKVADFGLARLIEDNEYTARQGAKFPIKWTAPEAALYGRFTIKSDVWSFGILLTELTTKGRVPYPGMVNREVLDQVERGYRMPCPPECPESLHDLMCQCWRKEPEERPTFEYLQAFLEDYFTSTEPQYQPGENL

[5] = test system: HCT-116 colorectal cancer cell line; assay: MTT antiproliferative assay, HCT-116; settings: for GI% HCT-116: 10 µM, 24 h, MTT; for IC50: Homo sapiens, HCT-116, 24 h, read-out: IC50 HCT-116 (half maximal growth inhibitory concentration)
Experimental: as §2, §3

CN1CCN(CCCOc2cc(-c3ccc(C(F)(F)F)cc3)nc3ccccc23)CC1 [10a, 4-(3-(4-methylpiperazin-1-yl)propoxy)-2-(4-(trifluoromethyl)phenyl)quinoline]
GI% MCF-7 [1]: 14.26%
GI% DLD1 [2]: 22.51%
IC50 [2]: > 100 µM
IC50 (IGF-1R): 0.198 µM
IC50 (HER-2): 1020 nM
IC50 (FRK): 8.91 µM
TOP1 inhibitory activity (semiquantitative score relative to 1 µM CPT) (recombinant human TOP1): 0
IC50 (FAK): 298.7 ± 1.94 nM
IC50 (BTK): 4760 nM
melting point: 110 to 112 °C
IC50 (VEGFR-1): 4.39 µM
GI% MDMBA-231 [3]: 37.15%
IC50 (VEGFR-2): 8550 nM
IC50 (EGFR): 244 ± 8.41 nM
GI% Hela [4]: 25.64%
IC50 (c-Src): 1030 nM
GI% HCT-116 [5]: 18.64%
IC50 [5]: > 100 µM

FC(F)(F)c1ccc(-c2cc(OCCCNC3CCCCC3)c3ccccc3n2)cc1 [10b, N-(3-((2-(4-(trifluoromethyl)phenyl)quinolin-4-yl)oxy)propyl)cyclohexanamine]
GI% MCF-7 [1]: 64.81%
GI% DLD1 [2]: 35.72%
IC50 [2]: 40.3 ± 2.09 µM
IC50 (IGF-1R): 5.74 µM
IC50 (HER-2): 598 nM
IC50 (FRK): 4.37 µM
TOP1 inhibitory activity (semiquantitative score relative to 1 µM CPT) (recombinant human TOP1): 0
IC50 (FAK): 165 ± 5.37 nM
IC50 (BTK): 2980 nM
melting point: 68 to 70 °C
IC50 (VEGFR-1): 8.51 µM
GI% MDMBA-231 [3]: 45.35%
IC50 (VEGFR-2): 8680 nM
IC50 (EGFR): 180 ± 9.12 nM
GI% Hela [4]: 55.49%
IC50 (c-Src): 7780 nM
GI% HCT-116 [5]: 24.10%
IC50 [5]: > 100 µM

Clc1ccc(-c2cc(OCCCn3ccnc3)c3cc4c(cc3n2)OCO4)cc1 [12a, 8-(3-(1H-imidazol-1-yl)propoxy)-6-(4-chlorophenyl)-[1,3] dioxolo[4,5-g]quinoline]
GI% MCF-7 [1]: 11.72%
GI% DLD1 [2]: 21.25%
IC50 [2]: > 100 µM
IC50 (IGF-1R): 5.37 µM
IC50 (HER-2): 34.8 nM
IC50 (FRK): 0.734 µM
TOP1 inhibitory activity (semiquantitative score relative to 1 µM CPT) (recombinant human TOP1): −/+ (−/+: 0–25% 1 µM CPT)
IC50 (FAK): 225 ± 14 nM
IC50 (BTK): 196 nM
melting point: 146 to 148 °C
IC50 (VEGFR-1): 1.76 µM
GI% MDMBA-231 [3]: 4.98%
IC50 (VEGFR-2): 48.3 nM
IC50 (EGFR): 125 ± 7.94 nM
GI% Hela [4]: 22.79%
IC50 (c-Src): 55.3 nM
GI% HCT-116 [5]: 16.25%
IC50 [5]: > 100 µM

Clc1ccc(-c2cc(OCCCN3CCOCC3)c3cc4c(cc3n2)OCO4)cc1 [12b, 6-(4-chlorophenyl)-8-(3-morpholinopropoxy)-[1,3]dioxolo [4,5-g]quinoline]
GI% MCF-7 [1]: 64.38%
GI% DLD1 [2]: 72.95%
IC50 [2]: 8.36 ± 1.08 µM
IC50 (IGF-1R): 7.16 µM
IC50 (HER-2): 27.3 nM
IC50 (FRK): 1.13 µM
TOP1 inhibitory activity (semiquantitative score relative to 1 µM CPT) (recombinant human TOP1): −/+ (−/+: 0–25% 1 µM CPT)
IC50 (FAK): 70.9 ± 3.16 nM
IC50 (BTK): 213 nM
melting point: 153 to 155 °C
IC50 (VEGFR-1): 5.99 µM
GI% MDMBA-231 [3]: 14.28%
IC50 (VEGFR-2): 27 nM
IC50 (EGFR): 95.4 ± 2.05 nM
fold decreased activity than Gefitinib, EGFR (EGFR; from IC50 values): 2 fold
GI% Hela [4]: 25.39%
IC50 (c-Src): 42.3 nM
GI% HCT-116 [5]: 31.28%
IC50 [5]: 14.4 ± 3.69 µM

FC(F)(F)c1ccc(-c2cc(OCCCn3ccnc3)c3cc4c(cc3n2)OCO4)cc1 [12c, 8-(3-(1H-imidazol-1-yl)propoxy)-6-(4-(trifluoromethyl)phenyl)-[1,3]dioxolo[4,5-g]qui-noline]
GI% MCF-7 [1]: 43.27%
GI% DLD1 [2]: 71.94%
IC50 [2]: 9.12 ± 2.11 µM
IC50 (IGF-1R): 9 µM
IC50 (HER-2): 169 nM
IC50 (FRK): 4.88 µM
TOP1 inhibitory activity (semiquantitative score relative to 1 µM CPT) (recombinant human TOP1): 0
IC50 (FAK): 111 ± 8.94 nM
IC50 (BTK): 99.5 nM
melting point: 125 to 127 °C
IC50 (VEGFR-1): 7.72 µM
GI% MDMBA-231 [3]: 61.94%
IC50 (VEGFR-2): 56.9 nM
IC50 (EGFR): 247 ± 12.3 nM
GI% Hela [4]: 68.22%
IC50 (c-Src): 119 nM
GI% HCT-116 [5]: 80.49%
IC50 [5]: 6.37 ± 1.09 µM

FC(F)(F)c1ccc(-c2cc(OCCCN3CCOCC3)c3cc4c(cc3n2)OCO4)cc1 [12d, 8-(3-morpholinopropoxy)-6-(4-(trifluoromethyl)phenyl)-[1,3]dioxolo[4,5-g]quinoline]
GI% MCF-7 [1]: 26.54%
GI% DLD1 [2]: 22.58%
IC50 [2]: 74.9 ± 5.46 µM
IC50 (IGF-1R): 0.453 µM
IC50 (HER-2): 897 nM
IC50 (FRK): 6.53 µM
TOP1 inhibitory activity (semiquantitative score relative to 1 µM CPT) (recombinant human TOP1): 0
IC50 (FAK): 273 ± 2.84 nM
IC50 (BTK): 653 nM
melting point: 138 to 140 °C
IC50 (VEGFR-1): 2.54 µM
GI% MDMBA-231 [3]: 9.36%
IC50 (VEGFR-2): 855 nM
IC50 (EGFR): 450.2 ± 4.25 nM
GI% Hela [4]: 36.67%
IC50 (c-Src): 1450 nM
GI% HCT-116 [5]: 54.37%
IC50 [5]: 9.2 ± 2.49 µM

Clc1ccc(-c2cc(OCCCn3ccnc3)c3cc(Br)ccc3n2)cc1 [16a, 4-(3-(1H-imidazol-1-yl)propoxy)-6-bromo-2-(4-chlorophenyl)quinoline]
GI% MCF-7 [1]: 22.97%
GI% DLD1 [2]: 60.08%
IC50 [2]: 8.22 ± 1.12 µM
IC50 (IGF-1R): 5.23 µM
IC50 (HER-2): 2020 nM
IC50 (FRK): 6.15 µM
TOP1 inhibitory activity (semiquantitative score relative to 1 µM CPT) (recombinant human TOP1): 0
IC50 (FAK): 44.1 ± 3.26 nM
IC50 (BTK): 4800 nM
melting point: 149 to 151 °C
IC50 (VEGFR-1): 1.96 µM
GI% MDMBA-231 [3]: 51.24%
IC50 (VEGFR-2): 3410 nM
IC50 (EGFR): 222 ± 8.25 nM
GI% Hela [4]: 47.35%
IC50 (c-Src): 1350 nM
GI% HCT-116 [5]: 76.17%
IC50 [5]: 6.15 ± 1.3 µM
